Values of other authors in patent US8980929B2, “Substituted seven-membered heterocyclic compounds as dipeptidyl peptidase-iv inhibitors for the treatment of diabetes” (Merck Sharp & Dohme Corp., priority 2010, dated 2015).

How the values were obtained:
[1] = system: hematopoiesis; conditions: mouse, cyclophosphamide-induced neutropenia
[2] = target: DPP-4 (Homo sapiens (Human), UniProt P27487)
[3] = system: cardiac allograft; conditions: rats; doubled from day 7

DPP-4, sequence (P27487 whole entry, species assumed): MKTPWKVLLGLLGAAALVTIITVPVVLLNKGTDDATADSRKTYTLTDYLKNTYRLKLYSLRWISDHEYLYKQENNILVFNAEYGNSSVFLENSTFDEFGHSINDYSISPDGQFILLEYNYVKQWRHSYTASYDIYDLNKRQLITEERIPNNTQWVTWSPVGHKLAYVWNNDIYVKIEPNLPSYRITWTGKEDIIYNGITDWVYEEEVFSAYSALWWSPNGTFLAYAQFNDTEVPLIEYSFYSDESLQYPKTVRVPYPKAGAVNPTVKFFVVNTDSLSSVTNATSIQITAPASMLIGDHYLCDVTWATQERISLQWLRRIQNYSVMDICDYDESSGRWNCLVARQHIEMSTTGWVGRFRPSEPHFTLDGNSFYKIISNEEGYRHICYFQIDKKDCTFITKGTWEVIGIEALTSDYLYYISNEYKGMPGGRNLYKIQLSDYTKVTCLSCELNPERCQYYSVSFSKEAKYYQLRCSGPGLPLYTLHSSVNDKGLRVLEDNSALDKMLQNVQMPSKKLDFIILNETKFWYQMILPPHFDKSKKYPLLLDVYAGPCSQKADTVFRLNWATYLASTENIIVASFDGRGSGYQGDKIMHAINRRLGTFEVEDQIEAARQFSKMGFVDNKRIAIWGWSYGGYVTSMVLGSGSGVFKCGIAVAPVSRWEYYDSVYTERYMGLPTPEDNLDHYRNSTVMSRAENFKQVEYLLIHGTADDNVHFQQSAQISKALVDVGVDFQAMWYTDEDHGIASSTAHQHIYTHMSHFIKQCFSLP

In the case of `CC(C)[C@H](N)C(=O)N1CCC[C@H]1B(O)O` [Val-Boro-Pro], the hematopoiesis [1] is listed as “stimulated hematopoiesis”.

In the case of diprotin A, the “degradation of GRF to GRF[3-44] in plasma” value [2] is given as “prevented”.

For `CC(C)N1CCC(c2ccccc2)(c2ccccc2)CC1` [Prodipine, Pro-Pro-diphenyl-phosphonate], the cardiac allograft survival [3] is given as 14 day.
